# Patent US10485772B2, “Compositions for modulating cancer stem cells and uses therefor” (University of Canberra, priority 2014, dated 2019)
# “Also recorded” adds a separate entry of the source.
# Legend:
# Format in all cases: cell-based, human
# [1] = tested on: MCF-7 cells; experiment: EMT assay by phase contrast microscopy in MCF-IM model; conditions: MCF-7 cells; PMA 20 ng/mL for 60 hr, compared with TNF-α, EGF, IL-6, TGF-β
# Description: EMT assays were performed in 24-well plates (Costar, Corning Inc., Corning, N.Y., USA). For this assay, usually MCF-7 cells were seeded at 4×10^4/well/500 μL media one day before the experiment unless otherwise specified. Cells were stimulated with various EMT stimuli prepared in warm media the following day and monitored for EMT changes under the microscope specified below. The percentage of EMT was generally calculated based on phenotype counting 100 cells per field under the microscope. All the potential EMT stimuli used herein are described in Table 6 and they were prepared and stored as per supplier specification.
# (§1) Phase contrast microscopy was utilized for EMT and wound healing assays under 10× or 20× magnification of Olympus Fluorescence 1X71 microscope. Images were captured and analyzed as described above except that wound healing assay pictures were also analyzed by Image J software (Free software in Public domain developed by NIH).
# The adherent human mammary adenocarcinoma MCF-7 and MDA-MB-231 cells were cultured in low glucose DMEM (Gibco) and both supplemented with 10% FCS, 2 mM L-glutamine and 0.1% PSN antibiotics. […] For Bisindolylmaleimide-I (Calbiochem) or PKC-θ peptide inhibitor (Calbiochem) studies, cells were pre-treated with 1 μM or 30 μM of inhibitor respectively for 1 h prior to stimulation in MCF-7 cells. In case of MDA-MB-231, cells were treated with 4 μM or 30 μM Bisindolylmaleimide-I or PKC-θ peptide inhibitor respectively.
# (§2) phase contrast microscopy was performed where cells were viewed at ×4 magnification (wound healing assay) or ×10 magnification (EMT) using an Olympus fluorescence IX71 microscope (Olympus) and images were captured using DPController software (2002 Olympus Optical Co. LTD) and analyzed using Photoshop CS3 (Adobe Systems Inc.). Scans were taken with a 10 μm scale bar.
# [2] = tested on: CD44^high/CD24^low CSC-like subpopulation of PMA-stimulated MCF-7 cells (MCF-IM model); experiment: FACS analysis of CD44high/CD24low CSC-like subpopulation in MCF-IM model; conditions: for CD44 high CD24 low-CSC-like subpopulation (CSC formation) by FACS: NCD38 5 μM for 17 hr prior to PMA stimulation for 60 hours
# Description: (§3) Cells from each well/flask were harvested by means of trypsin treatment followed by two washes with PBS. Washed cells then re-suspended in an antibody cocktail consisting anti-CD44-APC, anti-CD24-PE antibodies (details in Table 5) and Hoechst 33258 dye (final dilution of 1:1000) (Invitrogen, Carlsbad, Calif.) in 1% FCS-PBS solution. Cells re-suspended in antibody cocktail were incubated for 20 minutes at 4° C. Cells were next washed twice with PBS and re-suspended in 1% FCS-PBS solution (volume based on cell number) and kept on ice until analyzed by FACS. Forward scatter (FSC) and side scatter parameters were selected with FITC fluorochrome excited by 488 nm argonion laser, PE fluorochrome excited by 488 nm and Hoechst fluorochrome excited by 350 nm helium-cadmium UV laser.
# (§4) Flow Cytometry data was produced using either BD FACS LSR Flow Cytometer (Becton Dickinson Biosciences) or BD FACS Aria™ II Flow Cytometer (Becton Dickinson Biosciences) and analyzed using the data acquisition software CellQuest Pro (Becton Dickinson Biosciences) and FlowJo (Tree Star Inc., Ashland, Oreg.) software at the MCRF facility, JCSMR, ANU, Canberra, Australia. Single colour controls were used to set compensation parameters. Isotype controls were used for all corresponding primary antibodies in each experiment.
# The FACS gating strategy used in this thesis is adopted and modified from the pioneer breast cancer stem cell publications (Al-Hajj et al., 2003) which sorted cells based on the CD44^high and CD24^low expression. […] To confirm that anti-CD44-APC and anti-CD24-PE antibodies were specific, isotype control antibodies were used. The isotype (negative controls) used for anti-CD24-PE was PE Mouse-Anti-human IgG2aK and for anti-CD44-APC was APC-Mouse-Anti-human IgG2bK. First, all the cells were stained with Hoechst 33258 to monitor cell viability. In addition cells were stained with varying concentrations of either APC or PE isotypes controls.
# (§5) The adherent human mammary adenocarcinoma MCF-7 and MDA-MB-231 cells were cultured in low glucose DMEM (Gibco) and both supplemented with 10% FCS, 2 mM L-glutamine and 0.1% PSN antibiotics. Cells were stimulated with 0.65 ng/ml of phorbol 12-myristate 13-acetate (PMA) (Sigma-Aldrich) or 20 ng/ml of TGF-β (R&D systems) for the times indicated. For Bisindolylmaleimide-I (Calbiochem) or PKC-θ peptide inhibitor (Calbiochem) studies, cells were pre-treated with 1 μM or 30 μM of inhibitor respectively for 1 h prior to stimulation in MCF-7 cells. In case of MDA-MB-231, cells were treated with 4 μM or 30 μM Bisindolylmaleimide-I or PKC-θ peptide inhibitor respectively.
# (§6) To separate CSC from non-CSC (NCSC), florescence activated cell sorting (FACS) was performed on single-cell suspensions that were stained with anti-CD44-APC (559942, BD Biosciences) and anti-CD24-PE antibodies (555428, BD Biosciences) along with Hoechst 33258 to monitor cell viability. As used throughout this work, CSC are defined by minority CD44^high/CD24^low, whereas NCSC are defined by rest of the cell populations.
# The adherent human mammary adenocarcinoma cell lines MCF-7 were cultured in low glucose DMEM (Gibco) and supplemented with 10% FCS, 2 mM L-glutamine, and 0.1% PSN antibiotics. Cells were stimulated with 0.65 ng/ml of phorbol 12-myristate 13-acetate (PMA) (Sigma-Aldrich) for 60 hours. FACS was performed on single-cell suspensions stained with anti-CD44-APC (559942, BD Biosciences) and anti-CD24-PE antibodies (555428, BD Biosciences), along with Hoechst 33258 (561908, BD Biosciences) to monitor cell viability as previously detailed (Zafar et al., Chromatinized PKC-theta directly regulates inducible genes in epithelial to mesenchymal transition and breast cancer stem cells. Molecular and Cellular Biology, 2014, 34:16 2961-2980). […]
# [3] = tested on: MDA-MB 231 cells; experiment: Phase contrast microscopy of EMT/MET in Basal/metastatic model; conditions: NCD38 5 μM
# Description: as §1, §5, §2
# [4] = tested on: MDA-MB 231 cells; experiment: FACS analysis of CD44high/CD24low CSC-like subpopulation in Basal/metastatic model; conditions: NCD38 5 μM
# Description: as §3, §4, §5, §6
# [5] = tested on: MCF-7 cells (mammospheres); experiment: Mammosphere assay in MCF-IM model; conditions: NCD38 5 μM for 17 hr prior to PMA for 6 days, mammospheres larger than 60 μm counted
# Description: The following mammosphere culture media components were purchased from StemCell Technologies Inc., BC, Canada: Mammocult Basal medium (Human) (catalogue number-05621), Mammocult Proliferation Supplements (Human) (catalogue number-05622), heparin (catalogue number-07904) and hydrocortisone (catalogue number-[…]). Hydrocortisone powder was freshly dissolved into mammocult basal medium to get 10^−4M solution on the day of experiment. 50 mL of
# Mammocult complete media was then prepared by addition of 45 mL Mammocult basal medium, 5 mL mammocult proliferation supplements, 100 μL of the 0.2% heparin stock, 500 μL of 10^−4M stock of hydrocortisone and 50 μL of the PNS. Mammocult complete media was either used on same day or stored for not more than 7 days at 4° C.
# MCF-7 cells were grown in a 175 cm^2 cell culture flask and harvested using a cell scraper (Zellschaber, Switzerland) or FACS sorted as specified below. Importantly trypsin treatment was never used for harvesting cells as it interferes with the mammosphere assay. Harvested cells were then re-suspended in 1 mL mammocult complete media and centrifuged at 500×g for 3 minutes at 20° C. The cell pellet was then re-suspended in 1 mL mammocult complete media before counting the cells on the Vi-CELL counter. Cell dilutions were then prepared to stain 40,000 cells/2 mL and 2 mL of cells were seeded in the 6 well-ultra low adherent, flat bottom plates (Costar, Corning Inc, Corning, N.Y., USA). Cells were either stimulated or not treated according to the experimental protocol and incubated at 37° C., under 5% CO2 for 7 days in a Hepa-Filtered Infrared (IR) Incubator (Forma Scientific Inc., Materietta, Ohio). Mammospheres larger than 60 μm were counted per well on day 7 and pictures were taken with an Olympus microscope. All the mammosphere assays were performed in duplicate wells and the entire procedure was repeated at least twice.
# Mammosphere culture media components were purchased from StemCell Technologies and mammosphere assays were performed as recommended by the manufacturer's guidelines. Briefly, 40,000 cells/2 ml cell dilutions were then prepared and 2 ml of cells were seeded in the 6 well-ultralow adherent, flat bottom plates (Costar). Mammospheres larger than 60 μm were counted per well on day 7 and pictures were taken.
smiles,measurement,setting,value
"CCCCCCCCCCCCCC(=O)O[C@@H]1[C@@H](C)[C@@]2(O)[C@@H](C=C(CO)C[C@]3(O)C(=O)C(C)=C[C@@H]23)[C@@H]2C(C)(C)[C@]12OC(C)=O [PMA, Phorbol 12-Myristate 13-Acetate]","EMT (percentage of the cells undergoing EMT, morphological changes)",[1],results in maximal EMT; also recorded: caused highest EMT changes
same,generation of CD44high/CD24low CSC-like cells by FACS,[2]; MCF-7 cells stimulated with PMA 0.65 ng/mL for 60 hr,generation of CD44^high/CD24^low-CSC like cells
O=C(N[C@@H](CCNC1CC1c1ccccc1)C(=O)NCc1cccc(Cl)c1)c1ccc(-c2ccccc2)cc1 (some centres unmarked) [NCD-38],"EMT / conversion of mesenchymal cells to epithelial cells (MET), phase contrast morphology",[3],conversion of mesenchymal cells in to epithelial cells
same,"EMT / conversion of mesenchymal cells to epithelial cells (MET), phase contrast morphology",[3]; listed as NCD38,inhibit EMT
same,CD44 high CD24 low-CSC-like subpopulation (CSC formation) by FACS,[4],decrease of CSC formation
same,CD44 high CD24 low-CSC-like subpopulation (CSC formation) by FACS,[4]; listed as NCD38,inhibits CD44 high CD24 low-CSC-like subpopulation
same,mammosphere formation,[5],inhibition CSC formation
same,mammosphere formation,[5]; listed as NCD38,reduce mammosphere formation
same,inhibition at 2.5 µM,"[2]; Homo sapiens, MCF7, MCF-IM model, NCD-38 alone at 2.5 μM",~50%
same,inhibition at 5 µM,"[2]; Homo sapiens, MCF7, MCF-IM model, NCD-38 alone at 5 μM",~60%
same,CD44 high CD24 low-CSC-like subpopulation (CSC formation) by FACS,[2]; MCF-IM model,inhibition CSC formation
same,CD44 high CD24 low-CSC-like subpopulation (CSC formation) by FACS,"[2]; MCF-IM model, listed as NCD38",inhibits CD44 high CD24 low-CSC-like subpopulation
CC(C)[C@@](C)(O)[C@@H]1CN(c2nc(-c3n[nH]c4ncccc34)c(F)cc2Cl)CCN1 [Compound C27],inhibition at 0.1 µM,"[2]; Homo sapiens, MCF7, MCF-IM model, C27 alone at 100 nM",~30%
same,inhibition at 0.5 µM,"[2]; Homo sapiens, MCF7, MCF-IM model, C27 alone at 500 nM",~90%
